From patent publication US12502369B2, “Methods of cancer treatment” (K-GEN, INC., priority 2015, dated 2025)
Where two headings read alike, the source gives them in different places.

What was measured:
KP-4 = assay: Proliferation assay (CellTiter Glo), KP-4; type: cell-based; settings: for Top inhibition %: 96 hours
Experimental: (§1) Briefly, cells at a density of 1,000-10,000 cells/well were seeded in 96-well plates and incubated at 37′C for 24 hours. A series of 9 different concentrations of compound stocks (500×) were created by 3-fold serial dilution in DMSO. These compounds were further diluted in culture media and then added to cells so that the final DMSO concentration was 0.2%. After 96 hours of incubation, 50 μL of CellTiter Glo reagent (Promega) was added to each well and luminescence was measured after 10 minutes using EnVision (PerkinElmer). […] The dose range for most compounds was 4.6 nM-30 μM. The dose ranges for some compounds were adjusted downward to 0.46 nM-3 μM or 0.08 nM-0.5 μM or 0.03 nM-0.2 μM. Luminescence from cells treated with […] alone was set as Max and % of inhibition was calculated as follows: Inhibition %=(Max-Sample value)/Max*100. Data was analyzed using XL-fit software (ID Business Solutions Ltd.) and EC50, relative EC50, and % of top inhibition were calculated. The results are shown in Tables 3-6 for pancreatic cancer, lung cancer, colon/gastric cancer, and leukemia cell lines.

Panc2.03 = assay: Proliferation assay (CellTiter Glo), Panc2.03; type: cell-based; settings: for Top inhibition %: 96 hours
Experimental: as §1

A549 = assay: Proliferation assay (CellTiter Glo), A549; type: cell-based; settings: for Top inhibition %: 96 hours
Experimental: as §1

H358 = assay: Proliferation assay (CellTiter Glo), H358; type: cell-based; settings: for Top inhibition %: 96 hours
Experimental: as §1

H727 = assay: Proliferation assay (CellTiter Glo), H727; type: cell-based; settings: for Top inhibition %: 96 hours
Experimental: as §1

AGS = assay: Proliferation assay (CellTiter Glo), AGS; type: cell-based; settings: for Top inhibition %: 96 hours
Experimental: as §1

BxPC-3 = assay: Proliferation assay (CellTiter Glo), BxPC-3; type: cell-based; settings: BxPC-3 (WT K-ras)
Experimental: as §1, with “calculated.” for “calculated. The results are shown in Tables 3-6 for pancreatic cancer, lung cancer, colon/gastric cancer, and leukemia cell lines.”
(§2) Other cancer cell lines having wild-type K-ras status and K-ras mutation at G12 were also screened using the PKC activator compounds. […] K-104 was tested in a range of 0.03 nM-0.2 μM. […] The dose ranges were adjusted downward to 0.46 nM-3 μM for K-102 and 0.08 nM-0.5 μM for K-103 for some cell lines.

SW900 = assay: Proliferation assay (CellTiter Glo), SW900; type: cell-based; settings: SW900 (K-ras: G12V)
Experimental: as §1, with “calculated.” for “calculated. The results are shown in Tables 3-6 for pancreatic cancer, lung cancer, colon/gastric cancer, and leukemia cell lines.”
as §2

H1915 = assay: Proliferation assay (CellTiter Glo), H1915; type: cell-based; settings: H1915 (WT K-ras)
Experimental: as §1, with “calculated.” for “calculated. The results are shown in Tables 3-6 for pancreatic cancer, lung cancer, colon/gastric cancer, and leukemia cell lines.”
as §2

HT29 = assay: Proliferation assay (CellTiter Glo), HT29; type: cell-based; settings: HT29 (WT K-ras)
Experimental: as §1, with “calculated.” for “calculated. The results are shown in Tables 3-6 for pancreatic cancer, lung cancer, colon/gastric cancer, and leukemia cell lines.”
as §2

Colo205 = assay: Proliferation assay (CellTiter Glo), Colo205; type: cell-based; settings: Colo205 (WT K-ras)
Experimental: as §1, with “calculated.” for “calculated. The results are shown in Tables 3-6 for pancreatic cancer, lung cancer, colon/gastric cancer, and leukemia cell lines.”
as §2

RPMI8226 = assay: Proliferation assay (CellTiter Glo), RPMI8226; type: cell-based; settings: RPMI8226 (K-ras: G12A)
Experimental: as §1, with “calculated.” for “calculated. The results are shown in Tables 3-6 for pancreatic cancer, lung cancer, colon/gastric cancer, and leukemia cell lines.”
as §2

[1] = tested on: PKCδ, PKCμ, c-Raf in xMiaPaCa-2, MiaPaCa-2, Panc6.03, Panc1; assay: Activation of PKC isoforms in pancreatic cancer cell lines, Western blot; type: cell-based
MBT-2 = assay: Anti-cell proliferative effects, MBT-2; type: cell-based, mouse
MH22A = assay: Anti-cell proliferative effects, MH22A; type: cell-based, mouse
[2] = tested on: PKC isoforms in Panc2.13 cells; assay: Time course of activation of PKC isoforms in Panc2.13; type: cell-based; settings: extended periods (16 h and 24 h)
Experimental: Cells of pancreatic cancer cell line Panc2.13 were seeded as described above, and the cell confluence was between 40-80% the next day. […] Phosphorylation at multiple PKC isoforms, such as Ser744/748 or Ser916 for PKCμ, phosphorylation at Thr638/641 for PKCα/β, phosphorylation at Ser660 for PKCβII (pan-PKC), phosphorylation at Ser643/676 for PKCδ/θ, and phosphorylation at Thr505 for PKCδ, were detected.

lymphoma cell lines = assay: Proliferation assay, 9 lymphoma cell lines; type: cell-based; settings: for IC50: among the sensitive lymphoma cell lines, read-out: IC50 ranges
Experimental: PKC activators were tested in 9 lymphoma cell lines (Table 10). Proliferation assays were performed as described in Example 1.

CaMKii (Thr286) = assay: CaMKii phosphorylation in pancreatic cancer cell lines, Western blot; type: cell-based; settings: Panc1 or Panc2.13 cells; 24 or 48 hours; K-101A 0.5 and 2.5 μM, K-102 0.1 and 0.5 μM
Experimental: Cells were lysed in a protein lysis buffer (1 ml of 10×TNE [20 mL 1M Tris pH7.5; 30 mL 5M NaCl; 2 mL 0.5M EDTA; 48 mL d2H2O], 1 ml of 10% NP40, 7.7 mL of dH2O, 100 μL of 10× Protease inhibitors, 100 μL of 10× Phosphatase inhibitors, and 10 μl DTT). Protein quantification, SDS-PAGE, and Western blot procedures were performed as described in Example 2. […] The effect was more apparent at 48 hours. Phospho-CaMKii (T286) is a marker for activation of CaMKii kinase in the Wnt/Ca^2′ signaling pathway when K-Ras and CaM are dissociated (Wang et al., 2015, Cell. 163(5):1237-51).

[3] = Homo sapiens, absolute EC50, 96 hours, read-out: Ab EC50
[4] = Homo sapiens, relative EC50, 96 hours, read-out: Re EC50
[5] = 9 lymphoma cell lines of Table 10
[6] = absolute EC50, 96 hours, read-out: Ab EC50
[7] = relative EC50, 96 hours, read-out: Re EC50

CC(=O)O[C@@]12C[C@@H](C)[C@]3(O)C4C=C(C)C(=O)[C@@]4(O)CC(CO)=C[C@H]3[C@@H]1C2(C)C (stereo partly drawn) [Compound K-101A, Prostratin]
Top inhibition % (KP-4): 63.3%
EC50 (KP-4; [3]): 400 nM
EC50 (KP-4; [4]): 190 nM
Top inhibition % (Panc2.03): 27.0%
EC50 (Panc2.03; Homo sapiens, Panc203, absolute EC50, 96 hours, read-out: Ab EC50): > 30000 nM
EC50 (Panc2.03; Homo sapiens, Panc203, relative EC50, 96 hours, read-out: Re EC50): 120 nM
Top inhibition % (A549): 76.0%
EC50 (A549; [3]): 490 nM
EC50 (A549; [4]): 270 nM
Top inhibition % (H358): 56.4%
EC50 (H358; Homo sapiens, NCI-H358, absolute EC50, 96 hours, read-out: Ab EC50): 4900 nM
EC50 (H358; Homo sapiens, NCI-H358, relative EC50, 96 hours, read-out: Re EC50): 160 nM
Top inhibition % (H727): 48.3%
EC50 (H727; Homo sapiens, NCI-H727, absolute EC50, 96 hours, read-out: Ab EC50): > 30000 nM
EC50 (H727; Homo sapiens, NCI-H727, relative EC50, 96 hours, read-out: Re EC50): 190 nM
Top inhibition % (AGS): 21.7%
EC50 (AGS; [3]): > 30000 nM
EC50 (AGS; [4]): 490 nM
Top inhibition % (BxPC-3): 40.11%
Top inhibition % (SW900): 7.1%
Top inhibition % (H1915): 27.7%
Top inhibition % (HT29): 12.8%
Top inhibition % (Colo205): 83.6%
Top inhibition % (RPMI8226): 32.39%
phosphorylation of c-Raf at Ser338 [1]: induced phosphorylation
phosphorylations of PKCδ at Thr505 and PKCμ at Ser744/748 [1]: increased
sensitivity to anti-cell proliferative effects (MBT-2): sensitive
sensitivity to anti-cell proliferative effects (MH22A): insensitive
reducing the phosphorylation at Ser643/676 of PKCδ/θ ([2]; K101A 1 μM versus K102, K103): more potent
sensitivity of lymphoma cell lines (lymphoma cell lines; [5]): Seven lymphoma cell lines were very sensitive
sensitivity of lymphoma cell lines (lymphoma cell lines; Daudi and Raji): not sensitive
IC50 (lymphoma cell lines): 77 to 284 nM
phosphorylation on CaMKii at Thr286 (CaMKii (Thr286)): induced phosphorylation

CC(=O)OCC1=C[C@H]2[C@@H]3C(C)(C)[C@]3(OC(C)=O)C[C@@H](C)[C@]2(O)C2C=C(C)C(=O)[C@@]2(O)C1 (stereo partly drawn) [Compound K-101E]
Top inhibition % (KP-4): 69.1%
EC50 (KP-4; [6]): 1280 nM
EC50 (KP-4; [7]): 680 nM
Top inhibition % (Panc2.03): 36.5%
EC50 (Panc2.03; [6]): > 30000 nM
EC50 (Panc2.03; [7]): 1920 nM
Top inhibition % (A549): 78.7%
EC50 (A549; [6]): 2640 nM
EC50 (A549; [7]): 1560 nM
Top inhibition % (H358): 47.9%
EC50 (H358; [6]): > 30000 nM
EC50 (H358; [7]): 1250 nM
Top inhibition % (H727): 49.1%
EC50 (H727; [6]): > 30000 nM
EC50 (H727; [7]): 620 nM
Top inhibition % (AGS): 25.9%
EC50 (AGS; [6]): > 30000 nM
EC50 (AGS; [7]): 4380 nM
Top inhibition % (BxPC-3): 38.87%
Top inhibition % (SW900): 25.4%
Top inhibition % (H1915): 35.6%
Top inhibition % (HT29): 31.7%
Top inhibition % (Colo205): 85.8%
Top inhibition % (RPMI8226): 32.25%

C/C=C(/C)C(=O)O[C@H]1C(C)=C[C@]23C(=O)[C@@H](C=C(CO)[C@@H](O)[C@]12O)[C@H]1[C@@H](C[C@H]3C)C1(C)C [Compound K-102, Ingenol-3-angelate, reference compound]
phosphorylations of PKCδ at Thr505 and PKCμ at Ser744/748 ([1]; all four pancreatic cell lines, K101A 1 μM, K102 0.1 μM): increased
phosphorylation of c-Raf at Ser338 ([1]; pancreatic cell lines, K101A 1 μM, K102 0.1 μM): induced phosphorylation
sensitivity to anti-cell proliferative effects (MBT-2): sensitive
sensitivity to anti-cell proliferative effects (MH22A): insensitive
reducing the phosphorylation at βII Ser660 of PKC (pan), to a lesser extent Thr638/641 of PKCα/β ([2]; K102 0.1 μM, K103 0.01 μM versus K101A): more potent
sensitivity of lymphoma cell lines (lymphoma cell lines; [5]): Seven lymphoma cell lines were very sensitive
sensitivity of lymphoma cell lines (lymphoma cell lines; Daudi and Raji): not sensitive
IC50 (lymphoma cell lines): 0.8 to 5 nM
phosphorylation on CaMKii at Thr286 (CaMKii (Thr286)): induced phosphorylation
